Legend:
[1] = molecular target: Serine/threonine-protein kinase RIO2 (Homo sapiens) (UniProt Q9BVS4); assay: Selectivity interaction (KinomeScan (DiscoverX)) EUB0001049a RIOK2; conditions: at 1 µM
[2] = molecular target: Protein-tyrosine kinase 2-beta (Homo sapiens) (UniProt Q14289); assay: Selectivity interaction (KinomeScan (DiscoverX)) EUB0001049a PTK2B; conditions: at 1 µM
[3] = molecular target: AP2-associated protein kinase 1 (Homo sapiens, UniProt Q2M2I8); assay: Selectivity interaction (KinomeScan (DiscoverX)) EUB0000666a AAK1; conditions: at 10 µM
[4] = molecular target: T1, Tyrosine-protein kinase JAK1 (Homo sapiens, UniProt P23458); assay: Selectivity interaction (KinomeScan (DiscoverX)) EUB0000666a JAK1; conditions: at 10 µM
[5] = molecular target: Tyrosine-protein kinase BTK (Homo sapiens, UniProt Q06187); assay: Selectivity interaction (KinomeScan (DiscoverX)) EUB0000666a BTK; conditions: at 10 µM
[6] = molecular target: MAP kinase-interacting serine/threonine-protein kinase 2 (Homo sapiens, UniProt Q9HBH9); assay: Selectivity interaction (KinomeScan (DiscoverX)) EUB0000666a MKNK2; conditions: at 10 µM
[7] = molecular target: Leucine-rich repeat serine/threonine-protein kinase 2 (Homo sapiens, UniProt Q5S007); assay: Selectivity interaction (SelectScreen Kinase Profiling (Thermo Fisher Scientific)) EUB0001558a LRRK2; conditions: at 1 µM
[8] = molecular target: Serine/threonine-protein kinase B-raf (Homo sapiens) (UniProt P15056); assay: Selectivity interaction (Kinase panel (Invitrogen)) EUB0000639a BRAF; conditions: at 200 nM
[9] = molecular target: Cyclin-dependent kinase 17 (Homo sapiens) (UniProt Q00537); assay: Selectivity interaction (ActivX KiNativ screen (kinase selectivity in THP-1 cell lysates)) EUB0000639a CDK17; assay type: subcellular; conditions: lysate, at 0.01 µM
[10] = molecular target: T2, Ephrin type-B receptor 2 (Homo sapiens) (UniProt P29323); assay: Selectivity interaction (KinomeScan (DiscoverX)) EUB0000618a EPHB2; conditions: at 10 µM
T2 sequence (whole entry): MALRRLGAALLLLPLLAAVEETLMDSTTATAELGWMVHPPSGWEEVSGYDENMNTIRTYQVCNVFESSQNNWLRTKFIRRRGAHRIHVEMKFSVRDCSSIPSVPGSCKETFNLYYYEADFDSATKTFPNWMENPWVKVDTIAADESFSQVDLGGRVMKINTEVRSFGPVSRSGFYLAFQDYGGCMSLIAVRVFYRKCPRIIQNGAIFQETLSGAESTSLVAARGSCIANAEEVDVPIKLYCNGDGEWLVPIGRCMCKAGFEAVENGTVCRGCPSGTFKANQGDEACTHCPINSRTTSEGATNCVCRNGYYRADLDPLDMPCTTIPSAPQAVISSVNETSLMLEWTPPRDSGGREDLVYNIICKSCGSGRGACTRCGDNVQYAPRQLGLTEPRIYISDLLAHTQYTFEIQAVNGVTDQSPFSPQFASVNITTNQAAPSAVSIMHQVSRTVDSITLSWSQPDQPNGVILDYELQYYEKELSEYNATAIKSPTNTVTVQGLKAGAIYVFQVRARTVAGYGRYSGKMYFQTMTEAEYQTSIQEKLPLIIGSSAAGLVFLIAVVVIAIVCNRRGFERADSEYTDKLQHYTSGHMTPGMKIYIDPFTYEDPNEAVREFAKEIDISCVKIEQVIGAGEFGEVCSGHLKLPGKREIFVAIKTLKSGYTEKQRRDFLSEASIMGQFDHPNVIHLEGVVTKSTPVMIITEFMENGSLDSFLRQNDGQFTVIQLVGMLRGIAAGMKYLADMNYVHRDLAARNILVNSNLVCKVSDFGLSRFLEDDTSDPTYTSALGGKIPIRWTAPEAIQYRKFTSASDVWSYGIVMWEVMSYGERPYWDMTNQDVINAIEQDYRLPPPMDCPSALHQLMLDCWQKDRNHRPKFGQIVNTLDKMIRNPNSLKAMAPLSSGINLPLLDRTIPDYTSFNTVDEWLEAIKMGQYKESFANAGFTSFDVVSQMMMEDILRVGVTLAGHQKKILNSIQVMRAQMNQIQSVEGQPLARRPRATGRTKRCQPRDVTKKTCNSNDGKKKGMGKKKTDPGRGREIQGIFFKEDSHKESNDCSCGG

[11] = molecular target: T1, Tyrosine-protein kinase JAK1; assay: Selectivity interaction (KinomeScan (DiscoverX)) EUB0001619a JAK1; conditions: at 1 µM
[12] = molecular target: T3, Tyrosine-protein kinase receptor TYRO3 (Homo sapiens) (UniProt Q06418); assay: Selectivity interaction (Upstate Kinase Profiler service (Millipore)) EUB0000056c TYRO3; conditions: at 1 µM
T3 sequence (whole entry): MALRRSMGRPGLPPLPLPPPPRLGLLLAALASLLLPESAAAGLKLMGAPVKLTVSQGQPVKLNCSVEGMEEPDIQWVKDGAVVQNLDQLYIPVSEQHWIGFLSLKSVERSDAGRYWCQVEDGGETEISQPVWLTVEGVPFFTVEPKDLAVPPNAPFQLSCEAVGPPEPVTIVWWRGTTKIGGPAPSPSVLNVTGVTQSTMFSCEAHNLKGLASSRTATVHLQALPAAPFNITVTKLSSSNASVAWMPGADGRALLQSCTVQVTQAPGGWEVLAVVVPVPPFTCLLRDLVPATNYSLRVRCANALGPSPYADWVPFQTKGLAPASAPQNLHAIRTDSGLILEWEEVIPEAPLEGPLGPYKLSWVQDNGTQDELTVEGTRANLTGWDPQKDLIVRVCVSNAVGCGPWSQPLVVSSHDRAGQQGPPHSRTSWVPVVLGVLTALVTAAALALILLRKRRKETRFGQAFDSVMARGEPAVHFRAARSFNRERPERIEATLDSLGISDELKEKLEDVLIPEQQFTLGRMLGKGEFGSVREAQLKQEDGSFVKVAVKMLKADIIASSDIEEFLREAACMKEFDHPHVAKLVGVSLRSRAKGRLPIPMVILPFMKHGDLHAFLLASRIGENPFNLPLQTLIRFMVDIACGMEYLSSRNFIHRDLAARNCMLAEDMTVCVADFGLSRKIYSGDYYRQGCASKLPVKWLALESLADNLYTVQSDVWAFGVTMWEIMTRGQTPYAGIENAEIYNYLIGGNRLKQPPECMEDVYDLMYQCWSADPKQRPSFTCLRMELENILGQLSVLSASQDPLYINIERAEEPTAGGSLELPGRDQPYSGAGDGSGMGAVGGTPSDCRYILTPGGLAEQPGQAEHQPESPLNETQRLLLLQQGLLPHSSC

[13] = molecular target: Mitogen-activated protein kinase kinase kinase kinase 4 (Homo sapiens, UniProt O95819); assay: Selectivity interaction (Upstate Kinase Profiler service (Millipore)) EUB0000056c MAP4K4; conditions: at 1 µM
[14] = molecular target: Serine/threonine-protein kinase PAK 6 (Homo sapiens) (UniProt Q9NQU5); assay: Selectivity interaction (KinomeScan (DiscoverX)) EUB0000607a PAK6; conditions: at 10 µM
[15] = system: Tyrosine-protein kinase JAK2 (Homo sapiens), O60674 [V617F]; assay: (§1) Selectivity interaction (SelectScreen profiling (Invitrogen)) EUB0000607a JAK2; conditions: at 2 µM
[16] = molecular target: Tyrosine-protein kinase JAK2 (Homo sapiens, UniProt O60674); assay: as §1; conditions: at 2 µM

T1 sequence (P23458 whole entry): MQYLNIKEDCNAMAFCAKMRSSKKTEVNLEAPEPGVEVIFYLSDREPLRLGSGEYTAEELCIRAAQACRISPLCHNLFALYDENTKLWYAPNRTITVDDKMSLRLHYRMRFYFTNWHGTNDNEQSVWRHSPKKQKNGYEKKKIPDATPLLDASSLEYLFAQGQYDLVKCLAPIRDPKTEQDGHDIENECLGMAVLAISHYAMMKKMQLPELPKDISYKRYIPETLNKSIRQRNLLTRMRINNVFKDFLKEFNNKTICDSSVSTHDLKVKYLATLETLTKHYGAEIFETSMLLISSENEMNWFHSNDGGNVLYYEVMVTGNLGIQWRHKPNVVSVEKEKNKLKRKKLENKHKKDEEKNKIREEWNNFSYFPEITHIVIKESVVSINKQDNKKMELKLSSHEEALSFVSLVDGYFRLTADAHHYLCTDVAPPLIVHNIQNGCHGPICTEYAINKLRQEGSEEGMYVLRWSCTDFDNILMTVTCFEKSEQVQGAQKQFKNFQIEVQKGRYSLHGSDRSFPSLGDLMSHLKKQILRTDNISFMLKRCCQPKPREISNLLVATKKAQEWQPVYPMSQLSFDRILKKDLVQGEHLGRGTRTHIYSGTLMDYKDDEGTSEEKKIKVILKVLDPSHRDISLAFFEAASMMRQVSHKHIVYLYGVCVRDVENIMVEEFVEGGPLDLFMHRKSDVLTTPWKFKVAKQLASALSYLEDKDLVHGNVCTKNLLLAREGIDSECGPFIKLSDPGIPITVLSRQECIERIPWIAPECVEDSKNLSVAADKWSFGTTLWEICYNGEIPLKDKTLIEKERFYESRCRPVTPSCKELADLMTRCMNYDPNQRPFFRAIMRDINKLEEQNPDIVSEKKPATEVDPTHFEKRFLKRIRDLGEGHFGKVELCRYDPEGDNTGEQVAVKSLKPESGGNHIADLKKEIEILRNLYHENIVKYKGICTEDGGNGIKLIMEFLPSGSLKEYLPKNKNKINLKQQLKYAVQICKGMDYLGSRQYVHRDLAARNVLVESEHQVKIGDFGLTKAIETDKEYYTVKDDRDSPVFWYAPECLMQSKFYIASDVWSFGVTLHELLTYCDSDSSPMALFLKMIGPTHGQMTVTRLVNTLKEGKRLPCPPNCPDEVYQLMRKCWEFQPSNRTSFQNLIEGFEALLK
AP2-associated protein kinase 1, sequence (Q2M2I8 whole entry, looked up): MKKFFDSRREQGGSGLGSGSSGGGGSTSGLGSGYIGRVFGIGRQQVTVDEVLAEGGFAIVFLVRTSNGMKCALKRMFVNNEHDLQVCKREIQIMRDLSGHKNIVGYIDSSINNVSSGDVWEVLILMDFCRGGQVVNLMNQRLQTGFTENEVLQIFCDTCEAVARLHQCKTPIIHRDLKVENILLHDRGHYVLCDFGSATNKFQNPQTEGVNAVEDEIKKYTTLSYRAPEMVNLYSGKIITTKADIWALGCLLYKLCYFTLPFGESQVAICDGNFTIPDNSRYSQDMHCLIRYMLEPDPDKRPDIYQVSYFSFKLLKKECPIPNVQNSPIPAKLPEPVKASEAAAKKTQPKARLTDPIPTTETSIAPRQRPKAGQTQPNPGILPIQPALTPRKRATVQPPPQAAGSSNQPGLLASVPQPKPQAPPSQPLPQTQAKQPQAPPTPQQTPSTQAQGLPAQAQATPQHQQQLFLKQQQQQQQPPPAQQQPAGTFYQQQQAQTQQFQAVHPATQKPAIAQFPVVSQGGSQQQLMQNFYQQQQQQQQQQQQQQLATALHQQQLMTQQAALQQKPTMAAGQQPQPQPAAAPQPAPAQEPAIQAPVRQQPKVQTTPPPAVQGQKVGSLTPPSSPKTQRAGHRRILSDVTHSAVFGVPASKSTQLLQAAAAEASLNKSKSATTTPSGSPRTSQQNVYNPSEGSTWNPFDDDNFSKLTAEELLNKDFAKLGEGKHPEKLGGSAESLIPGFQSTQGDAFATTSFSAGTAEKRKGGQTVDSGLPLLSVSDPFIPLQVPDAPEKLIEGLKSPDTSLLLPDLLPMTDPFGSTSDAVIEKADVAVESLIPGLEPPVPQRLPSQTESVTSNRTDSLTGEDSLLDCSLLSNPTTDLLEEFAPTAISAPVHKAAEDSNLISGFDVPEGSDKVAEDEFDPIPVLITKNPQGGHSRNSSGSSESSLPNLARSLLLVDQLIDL
Leucine-rich repeat serine/threonine-protein kinase 2, sequence (Q5S007 whole entry): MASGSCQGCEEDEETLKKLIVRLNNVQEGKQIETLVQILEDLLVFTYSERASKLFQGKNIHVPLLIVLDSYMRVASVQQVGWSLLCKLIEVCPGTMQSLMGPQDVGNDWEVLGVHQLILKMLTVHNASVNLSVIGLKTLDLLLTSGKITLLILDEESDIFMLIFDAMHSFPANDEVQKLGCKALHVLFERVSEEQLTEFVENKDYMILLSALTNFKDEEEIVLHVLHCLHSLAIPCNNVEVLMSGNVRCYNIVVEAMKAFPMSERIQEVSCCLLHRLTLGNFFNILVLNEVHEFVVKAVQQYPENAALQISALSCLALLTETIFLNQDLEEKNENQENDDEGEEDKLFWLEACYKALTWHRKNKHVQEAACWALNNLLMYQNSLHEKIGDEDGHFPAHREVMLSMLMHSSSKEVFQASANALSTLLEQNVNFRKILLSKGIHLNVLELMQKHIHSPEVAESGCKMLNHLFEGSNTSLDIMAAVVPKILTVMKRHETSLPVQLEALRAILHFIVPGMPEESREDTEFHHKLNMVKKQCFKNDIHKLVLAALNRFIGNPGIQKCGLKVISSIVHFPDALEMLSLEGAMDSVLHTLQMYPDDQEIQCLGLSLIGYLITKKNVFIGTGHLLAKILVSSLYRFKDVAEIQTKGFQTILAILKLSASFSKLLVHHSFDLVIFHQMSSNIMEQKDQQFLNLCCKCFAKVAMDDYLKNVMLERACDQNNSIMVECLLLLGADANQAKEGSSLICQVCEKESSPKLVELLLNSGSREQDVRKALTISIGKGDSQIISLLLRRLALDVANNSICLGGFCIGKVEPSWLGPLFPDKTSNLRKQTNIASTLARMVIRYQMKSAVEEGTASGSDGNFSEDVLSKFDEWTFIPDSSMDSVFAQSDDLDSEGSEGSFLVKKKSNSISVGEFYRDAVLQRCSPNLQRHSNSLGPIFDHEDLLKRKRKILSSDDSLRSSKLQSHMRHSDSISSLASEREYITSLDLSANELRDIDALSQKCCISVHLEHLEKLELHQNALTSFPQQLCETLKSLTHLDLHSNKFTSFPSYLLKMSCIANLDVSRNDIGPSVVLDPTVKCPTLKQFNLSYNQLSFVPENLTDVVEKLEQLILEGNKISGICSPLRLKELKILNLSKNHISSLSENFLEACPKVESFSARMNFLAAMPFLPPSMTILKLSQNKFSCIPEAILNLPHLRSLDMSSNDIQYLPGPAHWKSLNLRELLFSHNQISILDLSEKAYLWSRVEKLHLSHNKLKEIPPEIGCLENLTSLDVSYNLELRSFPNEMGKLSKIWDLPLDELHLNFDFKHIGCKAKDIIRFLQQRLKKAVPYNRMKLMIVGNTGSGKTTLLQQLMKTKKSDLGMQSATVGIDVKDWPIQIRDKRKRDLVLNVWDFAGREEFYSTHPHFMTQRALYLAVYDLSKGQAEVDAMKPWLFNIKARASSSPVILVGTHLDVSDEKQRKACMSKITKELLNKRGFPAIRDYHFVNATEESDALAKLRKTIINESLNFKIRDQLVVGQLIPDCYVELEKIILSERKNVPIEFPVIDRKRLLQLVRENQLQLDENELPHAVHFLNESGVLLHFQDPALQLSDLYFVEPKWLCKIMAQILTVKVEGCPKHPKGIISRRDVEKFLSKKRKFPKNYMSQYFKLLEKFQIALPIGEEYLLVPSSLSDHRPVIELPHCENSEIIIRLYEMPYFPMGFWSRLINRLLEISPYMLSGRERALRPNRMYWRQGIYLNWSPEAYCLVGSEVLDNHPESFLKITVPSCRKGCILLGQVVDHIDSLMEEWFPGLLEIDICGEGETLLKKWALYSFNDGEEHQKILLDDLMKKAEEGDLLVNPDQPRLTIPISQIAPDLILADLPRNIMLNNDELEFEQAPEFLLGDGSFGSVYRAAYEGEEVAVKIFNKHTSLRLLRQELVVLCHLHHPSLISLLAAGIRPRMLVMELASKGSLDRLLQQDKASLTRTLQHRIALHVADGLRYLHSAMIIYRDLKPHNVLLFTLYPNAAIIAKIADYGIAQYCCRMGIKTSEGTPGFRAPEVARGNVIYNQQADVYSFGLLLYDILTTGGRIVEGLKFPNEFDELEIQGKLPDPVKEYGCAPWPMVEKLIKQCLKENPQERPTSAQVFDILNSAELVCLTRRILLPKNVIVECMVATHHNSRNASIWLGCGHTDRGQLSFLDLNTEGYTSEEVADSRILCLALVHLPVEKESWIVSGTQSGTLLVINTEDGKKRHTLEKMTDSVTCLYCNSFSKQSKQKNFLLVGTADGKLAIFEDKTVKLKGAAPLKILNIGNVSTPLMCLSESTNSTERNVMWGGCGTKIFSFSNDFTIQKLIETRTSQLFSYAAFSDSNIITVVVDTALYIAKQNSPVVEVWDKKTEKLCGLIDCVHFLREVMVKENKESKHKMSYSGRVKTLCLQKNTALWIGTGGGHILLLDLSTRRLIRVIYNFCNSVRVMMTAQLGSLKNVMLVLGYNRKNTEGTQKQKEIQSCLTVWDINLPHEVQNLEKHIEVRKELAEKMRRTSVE
MAP kinase-interacting serine/threonine-protein kinase 2, sequence (Q9HBH9 whole entry, looked up): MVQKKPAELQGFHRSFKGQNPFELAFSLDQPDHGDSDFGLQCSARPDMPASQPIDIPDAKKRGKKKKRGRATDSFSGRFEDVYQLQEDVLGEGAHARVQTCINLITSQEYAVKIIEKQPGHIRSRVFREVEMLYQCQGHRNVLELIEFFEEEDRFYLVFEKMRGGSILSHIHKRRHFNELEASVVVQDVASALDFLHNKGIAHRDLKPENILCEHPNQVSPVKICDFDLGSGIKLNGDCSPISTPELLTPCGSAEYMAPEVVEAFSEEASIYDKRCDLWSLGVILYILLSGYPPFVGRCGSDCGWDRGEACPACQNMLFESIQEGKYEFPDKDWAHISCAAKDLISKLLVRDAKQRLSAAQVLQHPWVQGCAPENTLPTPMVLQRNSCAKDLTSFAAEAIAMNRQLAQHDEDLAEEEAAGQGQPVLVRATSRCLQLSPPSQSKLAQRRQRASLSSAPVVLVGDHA

Question: With `COc1cc(Nc2nc(C)cc(-c3cnn4nc(OC)ccc34)n2)cc(C(F)(F)F)c1` as the molecule, how does the % of control [1] read?
Answer: 87%

Question: What about the % of control [2] of the same molecule?
Answer: 99%

Question: How did the % of control [3] turn out when `O=C(NOC[C@H](O)CO)c1ccc(F)c(F)c1Nc1ccc(I)cc1F` was run?
Answer: 100%

Question: What about the % of control [4] of the same molecule?
Answer: 100%

Question: And the % of control [5]?
Answer: 87%

Question: And the % of control [6]?
Answer: 100%

Question: For `CC(C)(O)[C@H](F)CN1Cc2cc(NC(=O)c3cnn4cccnc34)c(N3CCOCC3)cc2C1=O`, which % of inhibition [7] is on record?
Answer: 91.4%

Question: Which % of inhibition [8] does the source give for `CC[C@@H]1[C@H](F)C(=O)N[C@@H]1COc1nccc2cc(C(N)=O)c(OC)cc12` [ZIMLOVISERTIB] here?
Answer: 2.21%

Question: What about the % of inhibition [9] of the same molecule?
Answer: 16.3%

Question: How did the % of control [10] turn out when `O[C@H]1CC[C@H](Nc2ncc3nc(Nc4c(F)cc(F)cc4F)n([C@H]4CCOC4)c3n2)CC1` was run?
Answer: 72%

Question: How did the % of control [11] turn out when `N#Cc1cccc(-c2c[nH]c3ncnc(N4CCOCC4)c23)c1` was run?
Answer: 94%

Question: Which % of inhibition [12] does the source give for `Cc1ccc(-c2ccc3c(ccc4sc5c(c43)NC[C@@H](C)NC5=O)n2)cn1` here?
Answer: 10%

Question: And the % of inhibition [13]?
Answer: 43%

Question: `CNC(=O)Nc1ccc(-c2nc(N3CC4CCC(C3)O4)c3cnn(C4CCC5(CC4)OCCO5)c3n2)cc1` was tested. Which % of control [14] did it give?
Answer: 100%

Question: What about the % of inhibition [15] of the same molecule?
Answer: 4%

Question: And the % of inhibition [16]?
Answer: -3%
